# From patent US20030044861A1, “Method for diagnosing neoplasia” (priority 1998, published 2003)
# Legend:
# [1] = system: HCT116, Colon; assay: Growth inhibition of HCT116 cells; type: cell-based; settings: Homo sapiens, HCT-116
# Procedure: (§1) Briefly, suspected neoplastic tissue samples are removed from a patient and grown as explants in vitro. The tissue samples are grown in the presence and absence of a cGMP-specific PDE inhibitor. After being grown in culture, cells are fixed by the addition of cold trichloroacetic acid. Protein levels are measured using the sulforhodamine B (SRB) colorimetric protein stain assay as previously described by Skehan, P., Storeng, R., Scudiero, D., Monks, A., McMahon, J., Vistica, D., Warren, J. T., Bokesch, H., Kenney, S., and Boyd, M. R., “New Colorimetric Assay For Anticancer-Drug Screening,” J. Natl. Cancer Inst. 82: 1107-1112, 1990, which is incorporated herein by reference.
# (§2) To show the effectiveness of cGMP-specific PDE inhibition on various forms of neoplasia, (and, therefore, the usefulness of the diagnostic methods of this invention) cGMP-specific PDE inhibitors were tested on a number of neoplastic cell lines. […] Exisulind is defined as (Z)-5-fluoro-2-methyl-1-[[4-(methylsulfonyl)phenyl]methylene]indene-3-yl acetic acid or a salt thereof. The IC50 values were determined by the SRB assay.
# [2] = system: HT-29 cells; assay: Apoptosis and necrosis by morphology (acridine orange/ethidium bromide); type: cell-based; settings: HT-29 cells treated for six days
# Procedure: In one type of apoptosis assay, suspected neoplastic cells are removed from a patient. The cells are then grown in culture in the presence or absence of a cGMP-specific PDE inhibitor. Apoptotic cells are measured by combining both the attached and “floating” compartments of the cultures. The protocol for treating tumor cell cultures with PDE inhibitors and related compounds to obtain a significant amount of apoptosis has been described in the literature. (See, Piazza, G. A., et al., Cancer Research, 55:3110-16, 1995, which is incorporated herein by reference). The novel features of this assay include collecting both floating and attached cells, identification of the optimal treatment times and dose range for observing apoptosis, and identification of optimal cell culture conditions.
# Following treatment of neoplastic and normal cells with a test compound, cultures can be assayed for apoptosis and necrosis by fluorescent microscopy following labeling with acridine orange and ethidium bromide. The method for measuring apoptotic cell number has previously been described by Duke & Cohen, “Morphological And Biochemical Assays Of Apoptosis,” Current Protocols In Immunology, Coligan et al., eds. 3.17.1-3.17.16 (1992, which is incorporated herein by reference).
# For example, floating and attached cells are collected, and aliquots of cells are centrifuged. The cell pellet is then resuspended in media and a dye mixture containing acridine orange and ethidium bromide. The mixture is then examined microscopically for morphological features of apoptosis.
# Apoptotic and necrotic cell death was determined as previously described (Duke and Cohen, In: Current Protocols in Immunology, 3.17.1-3.17.16, New York, John Wiley and Sons, 1992). […] All data were collected from the same experiment.
# The diagnostic method of this invention is used to determine whether a particular neoplasia is sensitive to treatment with a cGMP-specific PDE inhibitor. The apoptosis inducing activity for a series of phosphodiesterase inhibitors, specific for different PDEs, was determined. HT-29 cells were treated for 6 days with various inhibitors of phosphodiesterase. Apoptosis and necrosis were determined morphologically after acridine orange and ethidium bromide labeling in accordance with the assay described, supra.
# [3] = system: neoplastic cells; assay: Apoptosis induction and growth inhibition in neoplastic cells (words only); type: cell-based
# [4] = system: A-427, Lung; assay: Growth inhibition of A-427 cells; type: cell-based; settings: Homo sapiens
# Procedure: as §1, §2
# [5] = system: PDE peak B (novel cGMP-specific PDE) from SW-480 cells; assay: cGMP hydrolysis by PDE peak B; type: biochemical, human
# [6] = molecular target: T1, PDE peak A (PDE5) from SW-480 cells (Homo sapiens, UniProt O76074); assay: cGMP hydrolysis by PDE peak A; type: biochemical
# T1 construct: SW-480 cells are collected and homogenized; The homogenate is centrifuged, and the supernatant is loaded onto a DEAE-Trisacryl M column; endogenous in cells; host or cells: SW-480 human colon carcinoma cells, DEAE-Trisacryl M fraction peak A
smiles,measurement,setting,value
CSc1ccc(/C=C2/C(C)=C(CC(=O)O)c3cc(F)ccc32)cc1 [Sulindac sulfide],IC50,[1],45 µM
same,"Apoptotic and necrotic cell death (FIG. 1, in words)",[2],capable of causing apoptotic cell death without inducing neoplastic cell necrosis
same,Apoptosis induction in neoplastic cells (in words),[3],induce apoptosis in neoplastic cells
same,Growth inhibition of neoplastic cells (in words),[3],precisely the opposite
same,IC50,[4],90 µM
same,"Mode of inhibition of cGMP hydrolysis, peak B",[5],competitively inhibit
same,"Mode of inhibition of cGMP hydrolysis, peak A",[6],competitively inhibit
